Experimental data taken from patent US20150031541A1 (priority 2012, published 2015).

Test system: Plasmopara viticola
Test: Plasmopara viticola/Grape/Curative (Grape Downy Mildew)
Type: in vivo
Details: 200 ppm; grape seedlings cv. Gutedel, inoculated one day before application; compared to untreated
Description: Plasmopara viticola/Grape/Curative (Grape Downy Mildew)
5-week-old grape seedlings cv. Gutedel are inoculated by spraying a sporangia suspension on their lower leaf surface one day before application. The inoculated grape plants are sprayed in a spray chamber with the formulated test compound diluted in water. The inoculated test plants are incubated at 22° C. and 100% rh in a greenhouse and the percentage leaf area covered by disease is assessed when an appropriate level of disease appears on untreated check plants (4-6 days after application).

`CSC1CN(C(=O)Cn2nc(C(F)F)cc2C(F)F)CCC1c1nc(C2=NOC(c3c(F)cccc3F)C2)cs1` (stereo not shown) [I.az.223, 2-[3,5-bis(difluoromethyl)pyrazol-1-yl]-1-[4-[4-[5-(2,6-difluorophenyl)-4,5-dihydroisoxazol-3-yl]thiazol-2-yl]-3-methylsulfanyl-1-piperidyl]ethanone] was tested, and the disease control was “at least 80%”.
